Target: T1, human CCR1 (Homo sapiens, UniProt P32246)
T1 sequence (P32246 1-355): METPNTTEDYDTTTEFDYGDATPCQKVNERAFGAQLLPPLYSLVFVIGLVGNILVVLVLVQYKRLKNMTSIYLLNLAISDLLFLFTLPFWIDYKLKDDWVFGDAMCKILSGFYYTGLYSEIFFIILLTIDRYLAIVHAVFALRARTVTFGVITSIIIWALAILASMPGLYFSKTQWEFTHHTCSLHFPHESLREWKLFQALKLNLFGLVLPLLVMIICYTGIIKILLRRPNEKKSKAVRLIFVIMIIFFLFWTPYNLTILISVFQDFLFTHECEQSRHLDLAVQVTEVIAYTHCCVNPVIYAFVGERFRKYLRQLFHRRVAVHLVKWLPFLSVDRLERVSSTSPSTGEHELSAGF
Experiment: CCR1 binding protocol (SPA, [125I]-MIP-1α displacement)
Details: cell membrane expressing human CCR1, 0.1 nM [125I]-MIP-1α, 4 hours at ambient temperature; read-out: Relative potency (IC50)
Summary of the method: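 Human CCR1 membranes (0.5 μg/well) on SPA beads were incubated with compound and 0.1 nM [125I]-MIP-1α (final) for 4 h at ambient temperature. Buffer was Tris pH 7.4 with NaCl, KCl, MnCl and 0.1% BSA. IC50 came from ½-log compound dilutions (10 mM top DMSO stock) by displacement of bound radioligand.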

IC50 [nM] | SMILES
< 50 | Cc1nc(Cl)c(NC(=O)N2CCC[C@@H]2c2nnc(C)n2Cc2ccc(Cl)cc2)c(Cl)n1 [Compound 178]
< 50 | Cc1nnc([C@H]2CCCN2C(=O)NC(C)(C)c2ccccc2)n1Cc1ccc(Cl)cc1 [Compound 179]
< 50 | Cc1nnc([C@H]2CCCN2C(=O)N[C@H](C)c2ccc(Cl)cc2)n1Cc1ccc(Cl)cc1 [Compound 180]
< 50 | CC[C@H](NC(=O)N1CCC[C@@H]1c1nnc(C)n1Cc1ccc(Cl)cc1)c1ccccc1 [Compound 181]
< 50 | Cc1nnc([C@H]2CCCN2C(=O)Nc2c(Cl)ncnc2N(C)C)n1Cc1ccc(Cl)cc1 [Compound 182]
50 to 500 | CCC(CC)NC(=O)N1CCC[C@@H]1c1nnc(C)n1Cc1ccc(Cl)cc1 [Compound 183]
50 to 500 | Cc1nnc([C@H]2CCCN2C(=O)N[C@@H](C)C2CCCCC2)n1Cc1ccc(Cl)cc1 [Compound 184]
50 to 500 | Cc1nnc([C@H]2CCCN2C(=O)NC2CCCCC2)n1Cc1ccc(Cl)cc1 [Compound 185]
50 to 500 | Cc1nnc([C@H]2CCCN2C(=O)NC2CCCCCC2)n1Cc1ccc(Cl)cc1 [Compound 186]
< 50 | Cc1noc(-c2ccccc2)c1NC(=O)N1CCC[C@@H]1c1nnc(Cl)n1Cc1ccc(Cl)cc1 [Compound 187]
< 50 | Cc1nc(Cl)nc(Cl)c1NC(=O)N1CCC[C@@H]1c1nnc(C)n1Cc1ccc(Cl)cc1 [Compound 188]
< 50 | COC(=O)c1cccc(NC(=O)N2CCC[C@@H]2c2nnc(C)n2Cc2ccc(Cl)cc2)c1C [Compound 189]
< 50 | Cc1cc(C(F)(F)F)ccc1NC(=O)N1CCC[C@@H]1c1nnc(C)n1Cc1ccc(Cl)cc1 [Compound 190]
< 50 | CC[C@H](NC(=O)N1CCC[C@@H]1c1nnc(C)n1Cc1ccc(Cl)cc1)c1ccc(Cl)c(Cl)c1 [Compound 191]
< 50 | Cc1nnc([C@H]2CCCN2C(=O)Nc2c(Cl)nc(N)nc2Cl)n1Cc1ccc(Cl)cc1 [Compound 192]
< 50 | COC(=O)c1ccc(C)c(NC(=O)N2CCC[C@@H]2c2nnc(C)n2Cc2ccc(Cl)cc2)c1 [Compound 193]
< 50 | O=C(N[C@H]1CCOc2cc(C(F)(F)F)ccc21)N1CCC[C@@H]1c1nnc(Cl)n1Cc1ccc(Cl)cc1 [Compound 194]
< 50 | Cc1nnc([C@H]2CCCN2/C(=N\C#N)N[C@@H](C)c2cc3ccccc3o2)n1Cc1ccc(Cl)cc1 [Compound 195]
< 50 | CC[C@H](N/C(=N/C#N)N1CCC[C@@H]1c1nnc(C)n1Cc1ccc(Cl)cc1)c1cc2ccccc2o1 [Compound 196]
< 50 | Cc1nnc([C@H]2CCCN2C(=O)Nc2ccc(Br)cc2C(F)(F)F)n1Cc1ccc(Cl)cc1 [Compound 197]
< 50 | Cc1cc(Cl)cc(C)c1N/C(=N/C#N)N1CCC[C@@H]1c1nnc(C)n1Cc1ccc(Cl)cc1 [Compound 198]
< 50 | Cc1nnc([C@H]2CCCN2C(=O)N[C@H]2CCOc3c2cccc3C(F)(F)F)n1Cc1ccc(Cl)cc1 [Compound 199]
< 50 | Cc1noc(C)c1NC(=O)N1CCC[C@@H]1c1nnc(C)n1Cc1ccc(Cl)cc1 [Compound 200]

IC50 [nM] | SMILES
< 50 | Cc1nnc([C@H]2CCCN2C(=O)Nc2c(Cl)ncnc2Cl)n1Cc1ccc(Cl)cc1 [Compound 201]
< 50 | Cc1nnc([C@H]2CCCN2C(=O)NCc2ccc(Cl)cc2Cl)n1Cc1ccc(Cl)cc1 [Compound 202]
< 50 | CCc1nnc([C@H]2CCCN2C(=O)Nc2c(C)noc2-c2ccccc2)n1Cc1ccc(Cl)cc1 [Compound 203]
< 50 | Cc1nnc([C@H]2CCCN2C(=O)NC2(c3ccccc3)CC2)n1Cc1ccc(Cl)cc1 [Compound 204]
< 50 | O=C(NCc1ccc(C(F)(F)F)cc1)N1CCC[C@@H]1c1nnc(Cl)n1Cc1ccc(Cl)cc1 [Compound 205]
< 50 | Cc1cc(C)c(NC(=O)N2CCC[C@@H]2c2nnc(C)n2Cc2ccc(Cl)cc2)c(C(N)=O)c1 [Compound 206]
< 50 | Cc1nnc([C@H]2CCCN2C(=O)N[C@H]2CCOc3cc(C#N)ccc32)n1Cc1ccc(Cl)cc1 [Compound 207]
< 50 | Cc1ccc(C(=O)N(C)C)cc1NC(=O)N1CCC[C@@H]1c1nnc(C)n1Cc1ccc(Cl)cc1 [Compound 208]
< 50 | CCc1nnc([C@H]2CCCN2C(=O)N[C@H]2CCOc3cc(C(F)(F)F)ccc32)n1Cc1ccc(Cl)cc1 [Compound 209]
< 50 | CNC(=O)c1cc(C)cc(C)c1NC(=O)N1CCC[C@@H]1c1nnc(C)n1Cc1ccc(Cl)cc1 [Compound 210]
< 50 | COC(=O)c1cc(C)cc(C)c1NC(=O)N1CCC[C@@H]1c1nnc(C)n1Cc1ccc(Cl)cc1 [Compound 211]
< 50 | CNC(=O)c1cccc(C)c1NC(=O)N1CCC[C@@H]1c1nnc(C)n1Cc1ccc(Cl)cc1 [Compound 212]
< 50 | Cc1nnc([C@H]2CCCN2C(=O)N[C@H](C)c2ccccc2)n1Cc1ccc(Cl)cc1 [Compound 213]
< 50 | CC[C@H](NC(=O)N1CCC[C@@H]1c1nnc(C)n1Cc1ccc(Cl)cc1)c1c(C)noc1C [Compound 214]
< 50 | COC(=O)c1ccc(NC(=O)N2CCC[C@@H]2c2nnc(C)n2Cc2ccc(Cl)cc2)c(C)c1 [Compound 215]
< 50 | CNC(=O)c1ccc(C)c(NC(=O)N2CCC[C@@H]2c2nnc(C)n2Cc2ccc(Cl)cc2)c1 [Compound 216]
< 50 | COC(=O)c1cccc(C)c1NC(=O)N1CCC[C@@H]1c1nnc(C)n1Cc1ccc(Cl)cc1 [Compound 217]
< 50 | Cc1nnc([C@H]2CCCN2C(=O)N[C@@H](C)c2ccc(F)cc2)n1Cc1ccc(Cl)cc1 [Compound 218]
< 50 | Cc1cccc(C(N)=O)c1NC(=O)N1CCC[C@@H]1c1nnc(C)n1Cc1ccc(Cl)cc1 [Compound 219]
< 50 | Cc1nnc([C@H]2CCCN2C(=O)NC(C)(C)c2ccc(C(F)(F)F)cc2)n1Cc1ccc(Cl)cc1 [Compound 220]
50 to 500 | Cc1nnc([C@H]2CCCN2C(=O)NCc2ccc(C(F)(F)F)nc2)n1Cc1ccc(Cl)cc1 [Compound 221]
50 to 500 | Cc1onc(-c2ccccc2)c1N/C(=N/C#N)N1CCC[C@@H]1c1nnc(C)n1Cc1ccc(Cl)cc1 [Compound 222]
50 to 500 | Cc1ncccc1NC(=O)N1CCC[C@@H]1c1nnc(C)n1Cc1ccc(Cl)cc1 [Compound 223]

IC50 [nM] | SMILES
50 to 500 | Cc1nnc([C@H]2CCCN2C(=O)NCc2ccccc2)n1Cc1ccc(Cl)cc1 [Compound 224]
50 to 500 | Cc1ccncc1NC(=O)N1CCC[C@@H]1c1nnc(C)n1Cc1ccc(Cl)cc1 [Compound 225]
50 to 500 | Cc1noc(-c2ccccc2)c1NC(=O)N1CCC[C@@H]1c1nnc(C(F)(F)F)n1Cc1ccc(Cl)cc1 [Compound 226]
50 to 500 | Cc1nnc([C@H]2CCCN2C(=O)N[C@@H](C)c2ccccc2)n1Cc1ccc(Cl)cc1 [Compound 227]
50 to 500 | Cc1nnc([C@H]2CCCN2C(=O)NCc2ccc(F)cc2)n1Cc1ccc(Cl)cc1 [Compound 228]
50 to 500 | Cc1ccc(C(N)=O)cc1NC(=O)N1CCC[C@@H]1c1nnc(C)n1Cc1ccc(Cl)cc1 [Compound 229]
50 to 500 | CNC(=O)c1cccc(NC(=O)N2CCC[C@@H]2c2nnc(C)n2Cc2ccc(Cl)cc2)c1C [Compound 231]
50 to 500 | CC(=O)N1CCC[C@H](NC(=O)N2CCC[C@@H]2c2nnc(C)n2Cc2ccc(Cl)cc2)C1 [Compound 232]
50 to 500 | Cc1cccc(C(=O)N(C)C)c1NC(=O)N1CCC[C@@H]1c1nnc(C)n1Cc1ccc(Cl)cc1 [Compound 233]
50 to 500 | CNC(=O)c1ccc(NC(=O)N2CCC[C@@H]2c2nnc(C)n2Cc2ccc(Cl)cc2)c(C)c1 [Compound 234]
50 to 500 | O=C(N[C@H]1CCOc2cc(C(F)(F)F)ccc21)N1CCC[C@@H]1c1nnc(C(F)(F)F)n1Cc1ccc(Cl)cc1 [Compound 235]
50 to 500 | Cc1cc(C(=O)N(C)C)ccc1NC(=O)N1CCC[C@@H]1c1nnc(C)n1Cc1ccc(Cl)cc1 [Compound 236]
50 to 500 | Cc1nnc([C@H]2CCCN2C(=O)Nc2ccncc2)n1Cc1ccc(Cl)cc1 [Compound 237]
50 to 500 | Cc1c(NC(=O)N2CCC[C@@H]2c2nnc(C)n2Cc2ccc(Cl)cc2)cccc1C(=O)N(C)C [Compound 238]
50 to 500 | Cc1cc(C)c(NC(=O)N2CCC[C@@H]2c2nnc(C)n2Cc2ccc(Cl)cc2)c(C(=O)N(C)C)c1 [Compound 239]
50 to 500 | Cc1cc(C(=O)O)ccc1NC(=O)N1CCC[C@@H]1c1nnc(C)n1Cc1ccc(Cl)cc1 [Compound 240]
50 to 500 | Cc1ccc(C(=O)O)cc1NC(=O)N1CCC[C@@H]1c1nnc(C)n1Cc1ccc(Cl)cc1 [Compound 241]
50 to 500 | Cc1c(NC(=O)N2CCC[C@@H]2c2nnc(C)n2Cc2ccc(Cl)cc2)cccc1C(=O)O [Compound 242]
50 to 500 | Cc1nnc([C@H]2CCCN2C(=O)Nc2ccc(Cl)cn2)n1Cc1ccc(Cl)cc1 [Compound 243]
50 to 500 | Cc1ccc(NC(=O)N2CCC[C@@H]2c2nnc(C)n2Cc2ccc(Cl)cc2)c(C(N)=O)c1 [Compound 244]
500 to 5000 | Cc1nnc([C@H]2CCCN2C(=O)Nc2cccnc2)n1Cc1ccc(Cl)cc1 [Compound 245]
500 to 5000 | Cc1nnc([C@H]2CCCN2C(=O)NC2CCCC2)n1Cc1ccc(Cl)cc1 [Compound 246]
500 to 5000 | Cc1c(NC(=O)N2CCC[C@@H]2c2nnc(C)n2Cc2ccc(Cl)cc2)cccc1C(N)=O [Compound 247]
